# Assay results published in US10294202B2, “Pyrrolidinones as herbicides” (FMC Corporation, priority 2013, dated 2019).
# Tests used:
# lambsquarters = test: Test D pre-/postemergence herbicide test; format: in vivo, Chenopodium album; settings: for Plant response rating: Lambsquarters, scale 0 to 100; for Plant response rating, Lambsquarters: scale 0 to 100 (0 no effect, 100 complete control)
# How it was run: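 Visual injury score, 0 (no effect) to 100 (complete control), taken 7–21 d post-treatment against untreated controls. Application was preemergence in silt loam and postemergence at 1- to 4-leaf stage, using a surfactant-containing non-phytotoxic solvent formulation.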
# nutsedge, yellow = test: Test E preemergence herbicide test; format: in vivo, Cyperus esculentus; set-up: key: 0 = no effect, 100 = complete control
# Text: Seeds of plant species selected from corn (Zea mays), soybean (Glycine max), velvetleaf (Abutilon theophrasti), lambsquarters (Chenopodium album), wild poinsettia (Euphorbia heterophylla), pigweed, palmer (palmer pigweed, Amaranthus palmeri), waterhemp (common waterhemp, Amaranthus rudis), surinam grass (Brachiaria decumbens), crabgrass, large (large crabgrass, Digitaria sanguinalis), crabgrass, Brazil (Brazilian crabgrass, Digitaria horizontalis), panicum, fall (fall panicum, Panicum dichotomiflorum), foxtail, giant (giant foxtail, Setaria faberii), foxtail, green (green foxtail, Setaria viridis), goosegrass (Eleusine indica), johnsongrass (Sorghum halepense), ragweed (common ragweed, Ambrosia elatior), barnyardgrass (Echinochloa crus-galli), sandbur (southern sandbur, Cenchrus echinatus), arrowleaf […] rhombifolia), ryegrass, Italian (Italian ryegrass, Lolium multiflorum), dayflower, VA (Virginia dayflower, Commelina virginica), field bindweed (Convolvulus arvensis), morningglory (Ipomoea coccinea), nightshade (eastern black nightshade, Solanum ptycanthum), kochia (Kochia scoparia), nutsedge, yellow (yellow nutsedge, Cyperus esculentus), cocklebur (common cocklebur, Xanthium strumarium), smartweed (ladysthumb smartweed, Polygonum Persicaria) and beggarticks (hairy beggarticks, Bidens pilosa), were planted into a silt loam soil and treated preemergence with test chemicals formulated in a non-phytotoxic solvent mixture which included a surfactant. Treated plants and controls were maintained in a greenhouse for 21 days, after which time all species were compared to controls and visually evaluated. Plant response ratings, summarized in Table E, are based on a scale of 0 to 100 where 0 is no effect and 100 is complete control. A dash (-) response means no test result.
# deadnettle = test: Test D pre-/postemergence herbicide test; format: in vivo, Lamium amplexicaule; settings: for Plant response rating: Deadnettle, scale 0 to 100; for Plant response rating, Deadnettle: scale 0 to 100 (0 no effect, 100 complete control)
# Text: Seeds of plant species selected from bluegrass (annual bluegrass, Poa annua), blackgrass (Alopecurus myosuroides), canarygrass (littleseed canarygrass, Phalaris minor), chickweed (common chickweed, Stellaria media), galium (catchweed bedstraw, Galium aparine), bromegrass, downy (downy bromegrass, Bromus tectorum), field poppy (Papaver rhoeas), field violet (Viola arvensis), foxtail, green (green foxtail, Setaria viridis), deadnettle (henbit deadnettle, Lamium amplexicaule), ryegrass, Italian (Italian ryegrass, Lolium multiflorum), kochia (Kochia scoparia), lambsquarters (Chenopodium album), oilseed rape (Brassica napus), pigweed (Amaranthus retroflexus), chamomile (scentless chamomile, Matricaria inodora), Russian thistle (Salsola kali), speedwell (bird's-eye speedwell, Veronica persica), barley, spring (spring barley, Hordeum vulgare), wheat, spring (spring wheat, Triticum aestivum), buckwheat, wild (wild buckwheat, Polygonum convolvulus), mustard, wild (wild mustard, Sinapis arvensis), oat, wild (wild oat, Avena fatua), radish, wild (wild radish, Raphanus raphanistrum), […]), barley, winter (winter barley, Hordeum vulgare), and wheat, winter (winter wheat, Triticum aestivum) were planted into a silt loam soil and treated preemergence with test chemicals formulated in a non-phytotoxic solvent mixture which included a surfactant. At the same time, these species were planted in pots containing Redi-Earth® planting medium (Scotts Company, 14111 Scottslawn Road, Marysville, Ohio 43041) comprising spaghnum peat moss, vermiculite, wetting agent and starter nutrients and treated with postemergence applications of the test chemicals formulated in the same manner. Plants ranged in height from 2 to 18 cm (1- to 4-leaf stage). Treated plants and controls were maintained in a controlled growth environment for 7 to 21 days after which time all species were compared to controls and visually evaluated. Plant response ratings, summarized in Table D, are based on a scale of 0 to 100 where 0 is no effect and 100 is complete control. A dash (-) response means no test result.
# arrowleaf sida = test: Test E preemergence herbicide test; format: in vivo, Sida rhombifolia; set-up: key: 0 = no effect, 100 = complete control
# How it was run: (§1)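 Seeds were sown in silt loam soil and treated preemergence with test chemicals in a non-phytotoxic solvent mixture containing a surfactant. Plants were kept in a greenhouse for 21 days, then visually rated against untreated controls on a 0–100 scale (0 = no effect, 100 = complete control).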
# corn = test: Test E preemergence herbicide test; format: in vivo, Zea mays; set-up: key: 0 = no effect, 100 = complete control
# How it was run: as §1
# sprangletop, Brdd. = test: Test F flood (paddy) test; format: in vivo, Leptochloa fascicularis; settings: 21 d, scale 0-100
# How it was run: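 In this paddy assay, 2.0–2.5-leaf plants grown in sterilized Tama silt loam (2.6% organic matter) at 30/27 °C with 16-h photoperiod receive compound via the 3-cm flood water. Control is rated visually at 21 d from 0 (none) to 100 (complete), versus untreated pots.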
structure (smiles),measurement,setting,value
"O=C1NCC(c2ccc(F)c(F)c2)C1C(=O)Nc1cccc(F)c1F (centres unmarked) [Compound 17, N-(2,3-difluorophenyl)-4-(3,4-difluorophenyl)-2-oxo-3-pyrrolidinecarboxamide]",Plant response rating,"lambsquarters; Postemergence, 16 g ai/ha",0
same,Plant response rating,"lambsquarters; Postemergence, 31 g ai/ha",0
same,Plant response rating,"lambsquarters; Postemergence, 62 g ai/ha",0
same,Plant response rating,"lambsquarters; Postemergence, 125 g ai/ha",20
same,Plant response rating,"lambsquarters; Postemergence, 250 g ai/ha",40
same,"Plant response rating, Nutsedge, Yellow","nutsedge, yellow; 16 g ai/ha",0
same,"Plant response rating, Nutsedge, Yellow","nutsedge, yellow; 31 g ai/ha",0
same,"Plant response rating, Nutsedge, Yellow","nutsedge, yellow; 62 g ai/ha",0
same,"Plant response rating, Nutsedge, Yellow","nutsedge, yellow; 125 g ai/ha",0
same,"Plant response rating, Nutsedge, Yellow","nutsedge, yellow; 250 g ai/ha",15
same,Plant response rating,"deadnettle; Postemergence, 16 g ai/ha",0
same,Plant response rating,"deadnettle; Postemergence, 31 g ai/ha",0
same,Plant response rating,"deadnettle; Postemergence, 62 g ai/ha",0
same,Plant response rating,"deadnettle; Postemergence, 125 g ai/ha",10
same,Plant response rating,"deadnettle; Postemergence, 250 g ai/ha",10
same,"Plant response rating, Arrowleaf Sida",arrowleaf sida; 16 g ai/ha,0
same,"Plant response rating, Arrowleaf Sida",arrowleaf sida; 31 g ai/ha,0
same,"Plant response rating, Arrowleaf Sida",arrowleaf sida; 62 g ai/ha,0
same,"Plant response rating, Arrowleaf Sida",arrowleaf sida; 125 g ai/ha,0
same,"Plant response rating, Arrowleaf Sida",arrowleaf sida; 250 g ai/ha,0
same,"Plant response rating, Corn",corn; 16 g ai/ha,0
same,"Plant response rating, Corn",corn; 31 g ai/ha,0
same,"Plant response rating, Corn",corn; 62 g ai/ha,0
same,"Plant response rating, Corn",corn; 125 g ai/ha,0
same,"Plant response rating, Corn",corn; 250 g ai/ha,0
same,"Plant response rating, Sprangletop, Brdd.","sprangletop, Brdd.; 125 g ai/ha",85
same,"Plant response rating, Sprangletop, Brdd.","sprangletop, Brdd.; 250 g ai/ha",85
same,"Plant response rating, Sprangletop, Brdd.","sprangletop, Brdd.; 500 g ai/ha",85
same,"Plant response rating, Sprangletop, Brdd.","sprangletop, Brdd.; 1000 g ai/ha",85
same,"Plant response rating, Sprangletop, Brdd.","sprangletop, Brdd.; 2000 g ai/ha",100
CN1CC(c2ccc(F)c(F)c2)C(C(=O)Nc2cccc(F)c2F)C1=O (centres unmarked) [Compound 303],"Plant response rating, Sprangletop, Brdd.","sprangletop, Brdd.; 62 g ai/ha",70
same,"Plant response rating, Sprangletop, Brdd.","sprangletop, Brdd.; 125 g ai/ha",80
same,"Plant response rating, Sprangletop, Brdd.","sprangletop, Brdd.; 250 g ai/ha",85
same,"Plant response rating, Sprangletop, Brdd.","sprangletop, Brdd.; 500 g ai/ha",90
O=C1NCC(c2ccc(C(F)(F)F)cc2)C1C(=O)Nc1cccc(F)c1F (racemic) [Compound 202],Plant response rating,"lambsquarters; Postemergence, 31 g ai/ha",65
same,Plant response rating,"lambsquarters; Postemergence, 62 g ai/ha",60
same,Plant response rating,"lambsquarters; Postemergence, 125 g ai/ha",70
same,Plant response rating,"lambsquarters; Postemergence, 250 g ai/ha",75
same,"Plant response rating, Lambsquarters","lambsquarters; Preemergence, 62 g ai/ha",85
same,"Plant response rating, Lambsquarters","lambsquarters; Preemergence, 31 g ai/ha",80
same,Plant response rating,"lambsquarters; Preemergence, 125 g ai/ha",85
same,Plant response rating,"lambsquarters; Preemergence, 250 g ai/ha",85
same,"Plant response rating, Nutsedge, Yellow","nutsedge, yellow; 31 g ai/ha",0
same,"Plant response rating, Nutsedge, Yellow","nutsedge, yellow; 62 g ai/ha",0
same,"Plant response rating, Nutsedge, Yellow","nutsedge, yellow; 125 g ai/ha",0
same,"Plant response rating, Nutsedge, Yellow","nutsedge, yellow; 250 g ai/ha",0
same,Plant response rating,"deadnettle; Postemergence, 31 g ai/ha",5
same,Plant response rating,"deadnettle; Postemergence, 62 g ai/ha",35
same,Plant response rating,"deadnettle; Postemergence, 125 g ai/ha",60
same,Plant response rating,"deadnettle; Postemergence, 250 g ai/ha",70
same,"Plant response rating, Deadnettle","deadnettle; Preemergence, 62 g ai/ha",65
same,"Plant response rating, Deadnettle","deadnettle; Preemergence, 31 g ai/ha",40
same,Plant response rating,"deadnettle; Preemergence, 125 g ai/ha",80
same,Plant response rating,"deadnettle; Preemergence, 250 g ai/ha",85
same,"Plant response rating, Arrowleaf Sida",arrowleaf sida; 31 g ai/ha,0
same,"Plant response rating, Arrowleaf Sida",arrowleaf sida; 62 g ai/ha,30
same,"Plant response rating, Arrowleaf Sida",arrowleaf sida; 125 g ai/ha,70
same,"Plant response rating, Arrowleaf Sida",arrowleaf sida; 250 g ai/ha,80
same,"Plant response rating, Corn",corn; 31 g ai/ha,0
same,"Plant response rating, Corn",corn; 62 g ai/ha,0
same,"Plant response rating, Corn",corn; 125 g ai/ha,40
same,"Plant response rating, Corn",corn; 250 g ai/ha,60
O=C1NCC(c2cccc(C(F)F)c2)C1C(=O)Nc1ccccc1F (racemic) [Compound 210],"Plant response rating, Sprangletop, Brdd.","sprangletop, Brdd.; 125 g ai/ha",100
same,"Plant response rating, Sprangletop, Brdd.","sprangletop, Brdd.; 250 g ai/ha",100
same,"Plant response rating, Sprangletop, Brdd.","sprangletop, Brdd.; 500 g ai/ha",100
